Measurements from patent US5200404A, “3-tetrazolylthiomethyl cephalosporin antibiotics” (ICI Pharma, priority 1990, dated 1993).
Values after ≈ are worked out from the molar mass of the structure shown. Like-named read-outs stand apart in the source and are kept apart here.

How the values were obtained:
[1] = system: Serr. marcesens DR(A8421078); assay: MIC by agar-dilution, Diagnostic Sensitivity Test agar; assay type: cell-based; details: inoculum 10^4 CFU/spot
Source text: (§1) The following results were obtained for Example 1 and two comparative compounds on a standard in vitro test system using Diagnostic Sensitivity Test agar medium. The antibacterial activity is described in terms of the minimum inhibitory concentration (MIC) determined by the agar-dilution technique with an inoculum size of 10^4 CFU/spot.

[2] = system: Serr. marcesens (A8421003); assay: as above; assay type: cell-based; details: inoculum 10^4 CFU/spot
Source text: as §1

E. coli DCO(A8341098) = assay: as above; assay type: cell-based; details: Escherichia coli, inoculum 10^4 CFU/spot
Source text: as §1

[3] = system: E. coli JS3 RTEM(A8341135); assay: as above; assay type: cell-based; details: Escherichia coli
Source text: as §1

[4] = system: Ent. cloacae DR(A8401108); assay: as above; assay type: cell-based; details: Enterobacter cloacae, inoculum 10^4 CFU/spot
Source text: as §1

Pr. morganii (A8433001) = assay: as above; assay type: cell-based; details: Morganella morganii, inoculum 10^4 CFU/spot
Source text: as §1

P. stuartii DR(A8382031) = assay: as above; assay type: cell-based; details: Providencia stuartii
Source text: as §1

[5] = system: P. aeruginosa 18S(A8101024); assay: as above; assay type: cell-based; details: Pseudomonas aeruginosa
Source text: as §1

A. anitratus (A8322001) = assay: as above; assay type: cell-based; details: Acinetobacter calcoaceticus
Source text: as §1

[6] = system: K. oxytoca D1^+ (A8395056); assay: as above; assay type: cell-based; details: Klebsiella oxytoca
Source text: as §1

[7] = system: Pr. morganii DR(A8433062); assay: as above; assay type: cell-based; details: Morganella morganii, inoculum 10^4 CFU/spot
Source text: as §1

[8] = system: Strep. pneumoniae (A8671001); assay: as above; assay type: cell-based; details: Streptococcus pneumoniae
Source text: as §1

[9] = system: P. aeruginosa DR18SH(A81011020); assay: as above; assay type: cell-based; details: Pseudomonas aeruginosa
Source text: as §1

S. dublin (A8369001) = assay: as above; assay type: cell-based; details: Salmonella enterica
Source text: as §1

[10] = system: P. aeruginosa PU21(A8101028); assay: as above; assay type: cell-based; details: Pseudomonas aeruginosa
Source text: as §1

[11] = system: Ent. cloacae P99-(A8401054); assay: as above; assay type: cell-based; details: Enterobacter cloacae
Source text: as §1

[12] = system: Citro. freundii DR(A8382034); assay: as above; assay type: cell-based; details: Citrobacter freundii, inoculum 10^4 CFU/spot
Source text: as §1

[13] = system: Ent. cloacae DR(A8401109); assay: as above; assay type: cell-based; details: Enterobacter cloacae, inoculum 10^4 CFU/spot
Source text: as §1

[14] = system: Strep. pyogenes (A8681018); assay: as above; assay type: cell-based; details: Streptococcus pyogenes
Source text: as §1

[15] = system: Citro. freundii DR(A8382031); assay: as above; assay type: cell-based; details: Citrobacter freundii
Source text: as §1

[16] = system: Ent. cloacae P99+(A8401053); assay: as above; assay type: cell-based; details: Enterobacter cloacae
Source text: as §1

half-life in marmosets = assay type: in vivo
Experimental: when dosed to marmosets at 3 mg/kg.

Which MIC [1] does the source give for `CC(C)(O/N=C(\C(=O)N[C@@H]1C(=O)N2C(C(=O)[O-])=C(C[n+]3ccccc3)CS[C@H]12)c1csc(N)n1)C(=O)O` [(B), ceftazidime, reference compound] here?
The MIC was 0.5 µg/mL (≈ 0.915 µM).

And the MIC [2]?
Its MIC is 0.25 µg/mL (≈ 0.457 µM).

And the MIC (E. coli DCO(A8341098))?
Its MIC is 0.125 µg/mL (≈ 0.229 µM).

And the MIC [3]?
The MIC was 0.06 µg/mL (≈ 0.11 µM).

And the MIC [4]?
Its MIC is 32 µg/mL (≈ 58.5 µM).

What about the MIC (Pr. morganii (A8433001)) of the same compound?
The MIC was 0.06 µg/mL (≈ 0.11 µM).

What about the MIC (P. stuartii DR(A8382031)) of the same compound?
The MIC was 4 µg/mL (≈ 7.32 µM).

And the MIC [5]?
Its MIC is 2 µg/mL (≈ 3.66 µM).

And the MIC (A. anitratus (A8322001))?
Its MIC is 16 µg/mL (≈ 29.3 µM).

And the MIC [6]?
The MIC was 0.5 µg/mL (≈ 0.915 µM).

And the MIC [7]?
The MIC was 16 µg/mL (≈ 29.3 µM).

What about the MIC [8] of the same compound?
Its MIC is 0.125 µg/mL (≈ 0.229 µM).

What about the MIC [9] of the same compound?
The MIC was 16 µg/mL (≈ 29.3 µM).

And the MIC (S. dublin (A8369001))?
Its MIC is 0.125 µg/mL (≈ 0.229 µM).

And the MIC [10]?
The MIC was 1 µg/mL (≈ 1.83 µM).

And the MIC [11]?
Its MIC is 0.125 µg/mL (≈ 0.229 µM).

What about the MIC [12] of the same compound?
Its MIC is 64 µg/mL (≈ 117 µM).

And the MIC [13]?
Its MIC is 32 µg/mL (≈ 58.5 µM).

What about the MIC [14] of the same compound?
Its MIC is 0.125 µg/mL (≈ 0.229 µM).

And the MIC [15]?
The MIC was 128 µg/mL (≈ 234 µM).

Which results are given for `CC(C)(O/N=C(\C(=O)NC1C(=O)N2C(C(=O)O)=C(CSc3nnnn3-c3cc(O)c(O)c(Cl)c3CC(=O)O)CS[C@H]12)c1csc(N)n1)C(=O)O` (stereo partly shown) [Example 1, 7-[2-(2-Aminothiazol-4-yl)-2-((Z)-1-carboxy-1-methylethoxyimino)acetamido]-3-[(1-(2-carboxymethyl-3-chloro-4,5-dihydroxyphenyl)tetrazol-5-yl)thiomethyl]ceph-3-em-4-carboxylic acid]?
MIC [1]: 0.008 µg/mL (≈ 0.0104 µM); MIC [2]: 0.008 µg/mL (≈ 0.0104 µM); MIC (E. coli DCO(A8341098)): 0.002 µg/mL (≈ 0.0026 µM); MIC [3]: 0.001 µg/mL (≈ 0.0013 µM); MIC [4]: 0.25 µg/mL (≈ 0.325 µM); MIC (Pr. morganii (A8433001)): 0.008 µg/mL (≈ 0.0104 µM); MIC (P. stuartii DR(A8382031); P. stuartii DR(A8382031), inoculum 10^4 CFU/spot, read-out: MIC): 0.03 µg/mL (≈ 0.039 µM); MIC ([5]; P. aeruginosa 18S(A8101024), inoculum 10^4 CFU/spot, read-out: MIC): 0.004 µg/mL (≈ 0.00519 µM); MIC (A. anitratus (A8322001); A. anitratus (A8322001), inoculum 10^4 CFU/spot, read-out: MIC): 0.06 µg/mL (≈ 0.0779 µM); MIC ([6]; K. oxytoca D1^+ (A8395056), inoculum 10^4 CFU/spot, read-out: MIC): 0.004 µg/mL (≈ 0.00519 µM); MIC [7]: 0.06 µg/mL (≈ 0.0779 µM); MIC ([8]; Strep. pneumoniae (A8671001), inoculum 10^4 CFU/spot, read-out: MIC): 0.03 µg/mL (≈ 0.039 µM); MIC ([9]; P. aeruginosa DR18SH(A81011020), inoculum 10^4 CFU/spot, read-out: MIC): 0.016 µg/mL (≈ 0.0208 µM); MIC (S. dublin (A8369001); S. dublin (A8369001), inoculum 10^4 CFU/spot, read-out: MIC): 0.004 µg/mL (≈ 0.00519 µM); MIC ([10]; P. aeruginosa PU21(A8101028), inoculum 10^4 CFU/spot, read-out: MIC): 0.008 µg/mL (≈ 0.0104 µM); MIC [16]: 1 µg/mL (≈ 1.3 µM); MIC ([11]; Ent. cloacae P99-(A8401054), inoculum 10^4 CFU/spot, read-out: MIC): 0.125 µg/mL (≈ 0.162 µM); MIC [12]: 0.5 µg/mL (≈ 0.649 µM); MIC [13]: 0.125 µg/mL (≈ 0.162 µM); MIC ([14]; Strep. pyogenes (A8681018), inoculum 10^4 CFU/spot, read-out: MIC): 0.5 µg/mL (≈ 0.649 µM); MIC ([15]; Citro. freundii DR(A8382031), inoculum 10^4 CFU/spot, read-out: MIC): 0.25 µg/mL (≈ 0.325 µM); half-life (t 1/2) compared with representative compounds of EP-A-272827 (half-life in marmosets; in words): substantially and significantly longer; half-life (half-life in marmosets; marmoset, in vivo, 3 mg/kg): 20.7 h
